From ChEMBL document CHEMBL1122594, “Parasite enzymes as potential targets for antiparasitic chemotherapy” (J Med Chem, 1984)
Activity calls are given as the source filed them. The rule behind the calls is not given here.

Columns and labels:
Gallus gallus = species on record: Gallus gallus; test: Anticoccidial activity against toxoplasmosis in chicken; no activity; assay type: functional, organism-based
[1] = Anticoccidial activity against toxoplasmosis in cattle; no activity; assay type: functional
[2] = (§1) Enzymatic activity was determined
[3] = as §1; remark: listed apart in the source

CCCc1ncc(C[n+]2ccccc2C)c(N)n1
Activity (Gallus gallus): inactive
Activity [1]: inactive

Nc1ccc(C(=O)O)cc1
Km [2]: 1.5 µM

N=C(N)NS(=O)(=O)c1ccc(N)cc1 [SULFAGUANIDINE]
Ki [3]: 69 µM

Nc1ccc(S(N)(=O)=O)cc1 [SULFANILAMIDE]
Ki [3]: 130 µM

Nc1ccc(S(=O)(=O)Nc2nccs2)cc1 [SULFATHIAZOLE]
Ki [3]: 14 µM
